Read-outs that look alike come from different tables or passages of the source.
Assays:
[1] = target: T1, neurokinin-1 (NK-1) receptor (Homo sapiens, UniProt P25103); experiment: NK-1 Binding assay ([125I] Substance P competition, U373 cell membranes); settings: U373 membranes, [125I] Substance P displacement, read-out: NK-1 IC50
T1 construct: a human glioblastoma-astrocytoma cell line that endogenously expresses the neurokinin-1 (NK-1) receptor; endogenous in cells; host or cells: U373 human glioblastoma-astrocytoma cells (membranes)
Procedure, shortened: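 Membranes were prepared from U373 human glioblastoma-astrocytoma cells, which express NK-1 endogenously, in 50 mM Tris-HCl pH 7.4 with 3 mM MnCl2, BSA and protease inhibitors. IC50 taken as the midpoint of the specific-binding displacement curve.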

[2] = target: T2, human serotonin transporters (Homo sapiens, UniProt P31645); experiment: Serotonin transporter binding assay ([3H]-citalopram competition, HEK-hSERT cell membranes)
T2 construct: expressed in transfected cells
Procedure, shortened: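 Competition binding against 1 nM [3H]-citalopram (1 hr, 25 °C, Tris pH 7.4 with NaCl/KCl) on stably transfected HEK-hSERT cell membranes, bound ligand collected on filters. Fluoxetine (10 μM) defined nonspecific binding; curve midpoint gives IC50, convertible to Ki by Cheng–Prusoff.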

[3] = Table 1, HEK-hSERT membranes, [3H]-citalopram displacement, read-out: SERT IC50
[4] = Table 2, HEK-hSERT membranes, [3H]-citalopram displacement, read-out: SERT IC50

T1 sequence (P25103 whole entry): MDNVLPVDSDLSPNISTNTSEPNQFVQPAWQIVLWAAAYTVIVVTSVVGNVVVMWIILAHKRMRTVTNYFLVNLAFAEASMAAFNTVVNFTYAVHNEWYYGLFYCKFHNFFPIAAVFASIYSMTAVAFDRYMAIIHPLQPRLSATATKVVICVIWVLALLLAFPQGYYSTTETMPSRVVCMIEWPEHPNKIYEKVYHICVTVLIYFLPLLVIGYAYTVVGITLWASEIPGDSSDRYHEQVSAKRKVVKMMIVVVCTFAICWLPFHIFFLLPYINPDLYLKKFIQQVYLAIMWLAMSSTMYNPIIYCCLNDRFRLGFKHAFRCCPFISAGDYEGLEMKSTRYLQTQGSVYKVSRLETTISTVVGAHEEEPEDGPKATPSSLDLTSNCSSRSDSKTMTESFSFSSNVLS
T2 sequence (P31645 whole entry): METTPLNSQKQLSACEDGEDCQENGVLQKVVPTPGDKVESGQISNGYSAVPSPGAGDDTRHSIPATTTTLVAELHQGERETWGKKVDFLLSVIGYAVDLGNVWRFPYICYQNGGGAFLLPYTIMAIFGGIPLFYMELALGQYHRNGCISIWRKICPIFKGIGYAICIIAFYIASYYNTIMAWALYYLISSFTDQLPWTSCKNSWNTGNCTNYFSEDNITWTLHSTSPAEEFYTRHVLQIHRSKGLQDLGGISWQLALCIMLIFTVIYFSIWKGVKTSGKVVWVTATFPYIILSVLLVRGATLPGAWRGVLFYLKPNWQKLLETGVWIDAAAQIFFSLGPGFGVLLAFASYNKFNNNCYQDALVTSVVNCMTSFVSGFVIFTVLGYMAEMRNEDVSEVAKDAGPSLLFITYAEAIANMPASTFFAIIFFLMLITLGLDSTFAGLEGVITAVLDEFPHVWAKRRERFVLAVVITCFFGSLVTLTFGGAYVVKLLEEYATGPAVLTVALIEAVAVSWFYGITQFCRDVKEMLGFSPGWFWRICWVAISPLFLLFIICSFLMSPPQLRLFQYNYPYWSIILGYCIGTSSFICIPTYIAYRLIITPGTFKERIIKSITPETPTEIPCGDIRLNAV

Compound CC(C)(C)c1ccc(-c2cc(COCC3(c4ccccc4)CCNCC3)cc(C(F)(F)F)c2)cc1 has an IC50 ([1]; Table 1) greater than 300 nM and an IC50 [2, 3] greater than 300 nM.

N#Cc1ccc(-c2cc(COCC3(c4ccccc4)CCNCC3)cc(C(=O)N3CCCCC3)c2)cc1 gave an IC50 ([1]; Table 2) greater than 300 nM and an IC50 [2, 4] of 0.01 to 100 nM.

CN1CCC(COCc2cc(F)cc(-c3ccc(F)cc3)c2)(c2ccccc2)CC1 was tested, and the IC50 ([1]; Table 2) was 100 to 300 nM and the IC50 [2] was 0.01 to 100 nM.

FC(F)(F)c1cc(COCC2(c3ccccc3)CCNCC2)cc(-c2cccc3ccccc23)c1 showed an IC50 ([1]; Table 1) greater than 300 nM and an IC50 [2, 3] of 100 to 300 nM.

COc1ccc(OC)c(-c2cc(COCC3(c4ccccc4)CCNCC3)cc(C(F)(F)F)c2)c1 was tested, and the IC50 ([1]; Table 1) was greater than 300 nM and the IC50 [2, 3] was 0.01 to 100 nM.

Compound Cc1cc(-c2cc(COCC3(c4ccccc4)CCN(C)CC3)cc(C(F)(F)F)c2)ccc1C#N has an IC50 ([1]; Table 2) of 0.01 to 100 nM and an IC50 [2] of 0.01 to 100 nM.

In the case of COc1ccc(-c2nnn(C)n2)cc1COCC1(c2ccccc2)CCNCC1, the IC50 ([1]; Table 1) is reported as greater than 300 nM and the IC50 [2, 3] is reported as 100 to 300 nM.

For Cn1nc(C(F)(F)F)cc1-c1cc(COCC2(c3ccccc3)CCNCC2)cc(C(F)(F)F)c1, the IC50 ([1]; Table 1) was greater than 300 nM and the IC50 [2, 3] was 0.01 to 100 nM.

Compound CC(OCC1(c2ccccc2)CCNCC1)c1cc(F)cc(-c2ccc(C#N)cc2)c1 (stereo not shown) has an IC50 ([1]; Table 2) of 0.01 to 100 nM and an IC50 [2, 4] of 0.01 to 100 nM.

With Cc1nnnn1-c1cc(COCC2(c3ccccc3)CCNCC2)cc(C(F)(F)F)c1 the IC50 ([1]; Table 1) was 100 to 300 nM and the IC50 [2, 3] was 0.01 to 100 nM.

CCOc1ccc2cc(-c3cc(COCC4(c5ccccc5)CCNCC4)cc(C(F)(F)F)c3)ccc2c1 showed an IC50 ([1]; Table 2) of 100 to 300 nM and an IC50 [2, 4] of 0.01 to 100 nM.

In the case of FC(F)(F)c1cc(COCC2(c3ccccc3)CCNCC2)cc(-c2ccc(N3CCOCC3)nc2)c1, the IC50 ([1]; Table 1) is reported as greater than 300 nM and the IC50 [2, 3] is reported as 0.01 to 100 nM.

With CCCCc1ccc(-c2cc(COCC3(c4ccccc4)CCNCC3)cc(C(F)(F)F)c2)cc1 the IC50 ([1]; Table 2) was 0.01 to 100 nM and the IC50 [2, 4] was 0.01 to 100 nM.

Work on COc1cc(-c2cc(COCC3(c4ccccc4)CCNCC3)cc(C(F)(F)F)c2)ccc1C#N yielded an IC50 ([1]; Table 2) of 0.01 to 100 nM and an IC50 [2, 4] of 0.01 to 100 nM.

COc1ccc(-n2nnnc2C)cc1COCC1(c2ccccc2)CCNCC1 gave an IC50 ([1]; Table 1) of 0.01 to 100 nM and an IC50 [2, 3] of 0.01 to 100 nM.

In the case of CCOc1ccc(-c2cc(COCC3(c4ccccc4)CCNCC3)cc(C(F)(F)F)c2)cc1, the IC50 ([1]; Table 1) is reported as 0.01 to 100 nM and the IC50 [2, 3] is reported as 0.01 to 100 nM.

Compound FC(F)(F)c1cc(COCC2(c3ccccc3)CCNCC2)cc(-c2ncccn2)c1 has an IC50 ([1]; Table 1) of 100 to 300 nM and an IC50 [2, 3] of 0.01 to 100 nM.

CN1CCC(COCc2cc(-c3ccncc3)cc(C(F)(F)F)c2)(c2ccccc2)CC1 gave an IC50 ([1]; Table 1) of 0.01 to 100 nM and an IC50 [2] of 0.01 to 100 nM.

FC(F)(F)c1cc(COCC2(c3ccccc3)CCNCC2)cc(-c2ccc(C3CCCCC3)cc2)c1 gave an IC50 ([1]; Table 2) greater than 300 nM and an IC50 [2, 4] of 100 to 300 nM.

CC(C)c1ccc(-c2cc(COCC3(c4ccccc4)CCNCC3)cc(C(F)(F)F)c2)cc1 was tested, and the IC50 ([1]; Table 2) was greater than 300 nM and the IC50 [2, 4] was 0.01 to 100 nM.

In the case of FC(F)(F)c1cc(COCC2(c3ccccc3)CCNCC2)cc(-c2nnn[nH]2)c1, the IC50 ([1]; Table 1) is reported as 100 to 300 nM and the IC50 [2, 3] is reported as 0.01 to 100 nM.

CN1CCC(COCc2cc(-c3ccc(C#N)cc3)cc(C(F)(F)F)c2)(c2ccccc2F)CC1 was tested, and the IC50 ([1]; Table 2) was 0.01 to 100 nM and the IC50 [2] was 0.01 to 100 nM.

FC(F)(F)c1cc(COCC2(c3ccccc3)CCNCC2)cc(-c2c(C(F)(F)F)cccc2C(F)(F)F)c1 was tested, and the IC50 ([1]; Table 2) was 0.01 to 100 nM and the IC50 [2, 4] was 0.01 to 100 nM.

Fc1ncccc1-c1cc(COCC2(c3ccccc3)CCNCC2)cc(C(F)(F)F)c1 was tested, and the IC50 ([1]; Table 1) was 0.01 to 100 nM and the IC50 [2, 3] was 0.01 to 100 nM.

N#Cc1ccc(-c2cc(COCC3(c4ccccc4)CCNCC3)cc(C(F)(F)F)c2)cc1F gave an IC50 ([1]; Table 2) of 0.01 to 100 nM and an IC50 [2, 4] of 0.01 to 100 nM.

Work on N#Cc1ccc(-c2cc(COCC3(c4ccccc4)CCN(Cc4ccccc4)CC3)cc(C(F)(F)F)c2)cc1 yielded an IC50 ([1]; Table 2) of 0.01 to 100 nM and an IC50 [2, 4] greater than 300 nM.

C[C@@H](OCC1(c2ccccc2)CCN(C)CC1)c1cc(-c2ccc(C#N)cc2)cc(C(F)(F)F)c1 gave an IC50 ([1]; Table 2) of 0.01 to 100 nM and an IC50 [2] of 0.01 to 100 nM.

Work on CC(OCC1(c2ccccc2)CCNCC1)c1cc(Cl)cc(-c2ccc(C#N)cc2)c1 (stereo not shown) yielded an IC50 ([1]; Table 2) of 0.01 to 100 nM and an IC50 [2, 4] of 0.01 to 100 nM.

Compound FC(F)(F)c1cc(COCC2(c3ccccc3)CCNCC2)cc(-c2ccc(Cl)cc2Cl)c1 has an IC50 ([1]; Table 1) of 0.01 to 100 nM and an IC50 [2, 3] of 0.01 to 100 nM.

Compound COc1ccc(-c2cc(COCC3(c4ccccc4)CCN(C)CC3)cc(C(F)(F)F)c2)cc1C has an IC50 ([1]; Table 2) of 0.01 to 100 nM and an IC50 [2] of 0.01 to 100 nM.

With Fc1cccc(-c2cc(COCC3(c4ccccc4)CCNCC3)cc(C(F)(F)F)c2)c1 the IC50 ([1]; Table 1) was 0.01 to 100 nM and the IC50 [2, 3] was 0.01 to 100 nM.

With COc1ccc(-c2cc(COCC3(c4ccccc4)CCN(C)CC3)cc(C(F)(F)F)c2)cc1F the IC50 ([1]; Table 2) was 0.01 to 100 nM and the IC50 [2] was 0.01 to 100 nM.

Work on CCOC(=O)c1ccccc1-c1cc(COCC2(c3ccccc3)CCNCC2)cc(C(F)(F)F)c1 yielded an IC50 ([1]; Table 2) greater than 300 nM and an IC50 [2, 4] of 100 to 300 nM.

With Fc1ccc(-c2cc(COCC3(c4ccccc4)CCNCC3)cc(C(F)(F)F)c2)cc1 the IC50 ([1]; Table 1) was 0.01 to 100 nM and the IC50 [2, 3] was 0.01 to 100 nM.

In the case of CN1CCC(COCc2cc(-c3ccc(C#N)cc3)cc(C(F)(F)F)c2)(c2cccc(Br)c2)CC1, the IC50 ([1]; Table 2) is reported as 0.01 to 100 nM and the IC50 [2] is reported as 0.01 to 100 nM.
